Data: patent publication US20230111558A1, “Composition for Preventing and Treating Heart Dysfunction and its Application Thereof” (21ST CENTURY HERBS & HEALTH, priority 2021, published 2023)

Tests used:
Type in all cases: in vivo
H/R zebrafish = experiment: Cardiac function of hypoxia-reoxygenation (H/R) zebrafish; settings: CoQ10=4.0 mg/L, reoxygenation 24 hours, vs H/R group
Protocol: (§1) The zebrafish experiments are conducted in accordance to the internationally accepted standards. The wild type zebrafish strain AB is provided by the Developmental Biology Platform of Chongqing Medical University. Using the Shanghai Haisheng zebrafish aquatic ecosystem, the temperature in the fish tank is 28.5° C., the water temperature is 28-30° C., the salinity is 0.03%-0.04%, the pH is 7.2-7.6, and the photoperiod is 14 h light-10 h dark.
Three-day post fertilization wild-type of zebrafish with normal development are used for the experiment. The zebrafish are divided into 4 groups, namely the control group, the H/R (Hypoxia-reoxygenation) group, the TC group (CoQ10=4.0 mg/L), and the CoQ10 group (CoQ10=4.0 mg/L), n=30. Fill the beaker with circulating water for fish breeding, and then fill the water with high purity nitrogen. At the same time, use dissolved oxygen meter to detect the oxygen concentration in the water. Stop filling nitrogen until the oxygen concentration is stable at 0.00 mg/L. The air in the bevel glass bottle is discharged with nitrogen, and the prepared hypoxic water is put into the bevel glass bottle. The juvenile zebrafish of 3 days are put into the bottle, the cap is tightened, the glass bottle is placed into a plastic sealed bag, and then the sealed bag is vacuumed to ensure that no air enters. The end point of hypoxia is that the young fish sank to the bottom and remained motionless for 1 minute. At the same time, the zebrafish bent its body, turned the glass bottle upside down and then put it flat. The zebrafish sank head down and vertically. Then, the zebrafish are taken out and put into aquaculture water or medicine solution prepared with aquaculture water. After reoxygenation for 24 hours, the heart function indexes of zebrafish are examined.
(§2) First, the zebrafish are placed at room temperature and counted the number of heart beats within 15 seconds under a microscope. Then, the heart rate is obtained by multiplying it by 4. Then the zebrafish are placed in a petri dish, fixed with 1% low-melting agar, and held in a lateral position (with the eyes on top of the segments and the tail at the same level as the body). Fifty-eight images are generated by using an inverted fluorescence microscope for five consecutive shots. The diastolic and systolic images are selected, and the length (a) and width (b) of the ventricles are measured. The volume (V) of the ventricles is calculated with the ellipsoidal volume formula, and the surface area (S) of the ventricles is calculated with the elliptical area formula. The stroke-volume (SV), ejection fraction (EF), and fractional area change (FAC), cardiac output (CO) of zebrafish are calculated. Ventricular volume (V)=4/3π(a/2) (b/2)^2; Stroke-volume (SV)=Vdiastolic−Vsystolic; Ejection Fraction (EF)=(Vdiastole−Vsystole)/Vdiastole; Ventricular surface area (S)=(a/2) (b/2)π; Fractional Area Change (FAC)=(Sdiastolic−Ssystolic)/Sdiastolic; Cardiac Output (CO)=Cardiac volume*heart rate.

ISO-induced zebrafish [1] = experiment: Cardiac function of ISO-induced zebrafish myocardial injury model; settings: ISO=0.02 mg/L, CoQ10=4.0 mg/L, 24 hours; vs ISO group
Protocol: as §1
(§3) Three-day post fertilization wild-type zebrafish with normal development are used for the experiment and divided them into 4 groups, namely the control group, the ISO group (ISO=0.02 mg/L), the TC group (CoQ10=4.0 mg/L), and the CoQ10 group (CoQ10=4.0 mg/L), 30 in each group; The zebrafish in the ISO group are immersed in the ISO solution prepared with embryo culture water for 24 hours, then taken out and recorded their heart rate under a microscope. The signs of successful ISO-induced myocardial injury in zebrafish are a significant decrease in heart rate and the formation of pericardial edema. The zebrafish in the TC and CoQ10 groups are respectively immersed in embryo breeding water containing ISO and TC or CoQ10, incubated for 24 hours and then taken out for photography under a microscope.
as §2

ISO-induced zebrafish [2] = experiment: ISO-induced zebrafish pericardial edema (pericardial height); settings: ISO=0.02 mg/L, CoQ10=4.0 mg/L, 24 hours; vs ISO group
Protocol: as §3
Images are used to measure the height of the pericardium, the distance between the front of the yolk sac and the top of the pericardium, as shown by the arrow in FIG. 3(A).

SOD = experiment: Superoxide dismutase (SOD) in ISO-induced zebrafish; settings: ISO=0.02 mg/L, CoQ10=4.0 mg/L, 24 hours; vs ISO group
Protocol: as §3
(§4) The detection of SOD and LDH are carried out according to the instructions of the kits, which are purchased from NanJing JianCheng Bioengineering Institute with the article numbers of A001-3, A020-2 and A019-2-1, respectively.

LDH = experiment: Lactate dehydrogenase (LDH) in ISO-induced zebrafish; settings: ISO=0.02 mg/L, CoQ10=4.0 mg/L, 24 hours; vs ISO group
Protocol: as §3, §4

[3] = test system: brain natriuretic peptide (BNP); experiment: BNP gene expression by RT-PCR in ISO-induced zebrafish; settings: ISO=0.02 mg/L, CoQ10=4.0 mg/L, 24 hours; vs ISO group
Protocol: as §3
(§5) Zebrafish RNA extraction, reverse transcription and quantitative amplification are performed in accordance with the instructions of the kit obtained from Nanjing Vazyme Biotech Co., Ltd, the article numbers are RC101, R223-01 and Q711-02.
(§6) ANP refers to atrial natriuretic peptide, BNP refers to brain natriuretic peptide, GAPDH refers to glyceraldehyde 3-phosphate dehydrogenase.

[4] = test system: atrial natriuretic peptide (ANP); experiment: ANP gene expression by RT-PCR in ISO-induced zebrafish; settings: ISO=0.02 mg/L, CoQ10=4.0 mg/L, 24 hours; vs ISO group
Protocol: as §3, §5, §6

For `COC1=C(OC)C(=O)C(C/C=C(\C)CC/C=C(\C)CC/C=C(\C)CC/C=C(\C)CC/C=C(\C)CC/C=C(\C)CC/C=C(\C)CC/C=C(\C)CC/C=C(\C)CCC=C(C)C)=C(C)C1=O` [CoQ10, Coenzyme Q10], the “cardiac output (CO)” value (H/R zebrafish) was “significantly increase”, the “ejection fraction (EF)” value (H/R zebrafish) was “significantly increase” and the “fractional area change (FAC)” value (H/R zebrafish) was “significantly increase”. For the same compound, the heart rate (H/R zebrafish) was “no significant effect”, the “stroke volume (SV)” value (H/R zebrafish) was “significantly increase” and the “cardiac output (CO)” value (ISO-induced zebrafish [1]) was “significantly increase”. For the same compound, the “ejection fraction (EF)” value (ISO-induced zebrafish [1]) was “significantly increase”, the “fractional area change (FAC)” value (ISO-induced zebrafish [1]) was “significantly increase” and the heart rate (ISO-induced zebrafish [1]) was “no significant effect”. For the same compound, the “stroke volume (SV)” value (ISO-induced zebrafish [1]) was “significantly increase”, the “pericardial edema (pericardial height)” value (ISO-induced zebrafish [2]) was “no effect” and the “activity of SOD” value (SOD) was “no significantly effect”. The “activity of LDH” value (LDH) was “reduced the activity of LDH, the result is insignificant”, the “excessive expression of BNP” value [3] was “significantly reduce” and the “excessive expression of ANP” value [4] was “significantly reduce”.
